Legend:
Format in all cases: biochemical
A-Raf = biological target: T1, A-Raf (Homo sapiens, UniProt P10398); assay: Kinase activity assay, A-Raf; conditions: Table 1a; read-out: activity toward kinase A-Raf, IC50
T1 sequence (P10398 1-606): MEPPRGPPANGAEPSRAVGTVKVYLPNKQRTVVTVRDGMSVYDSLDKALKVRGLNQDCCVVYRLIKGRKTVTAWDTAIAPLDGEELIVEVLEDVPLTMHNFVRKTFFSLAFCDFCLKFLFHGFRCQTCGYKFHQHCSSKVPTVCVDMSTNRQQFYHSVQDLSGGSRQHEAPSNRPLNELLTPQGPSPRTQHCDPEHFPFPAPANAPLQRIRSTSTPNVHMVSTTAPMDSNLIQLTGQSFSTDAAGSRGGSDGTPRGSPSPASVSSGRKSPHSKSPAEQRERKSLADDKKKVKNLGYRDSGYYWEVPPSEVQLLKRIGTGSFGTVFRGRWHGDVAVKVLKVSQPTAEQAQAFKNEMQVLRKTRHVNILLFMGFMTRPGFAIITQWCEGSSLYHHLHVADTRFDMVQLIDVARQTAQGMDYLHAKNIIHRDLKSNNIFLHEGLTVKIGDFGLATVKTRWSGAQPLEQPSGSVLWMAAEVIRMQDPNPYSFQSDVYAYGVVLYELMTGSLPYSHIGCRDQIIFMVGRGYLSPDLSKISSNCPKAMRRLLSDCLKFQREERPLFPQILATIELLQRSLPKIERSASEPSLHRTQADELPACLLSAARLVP
Text: (§1) Assays for the activity of kinases, including, but not limited to, Fms, Kit, B-Raf, B-Raf V600E, c-Raf-1, and TrkA are known in the art, for example as described in US Patent Publication Number US20070032519 and U.S. patent application Ser. No. 11/473,347 (see also, PCT publication WO2007002433), the disclosures of which are hereby incorporated by reference with respect to such assays.

B-Raf V600E = B-Raf V600E (Homo sapiens, UniProt P15056, V600E); assay: Kinase activity assay, B-Raf V600E; conditions: Table 1c; read-out: activity toward kinase B-Raf V600E, IC50
Text: as §1

Flt-1 = Flt-1 (Homo sapiens, UniProt P17948); assay: Kinase activity assay, Flt-1; conditions: Table 1f; read-out: activity toward kinase Flt-1, IC50
Text: as §1

Flt-3 = biological target: T2, Flt-3 (Homo sapiens, UniProt P36888); assay: Kinase activity assay, Flt-3; conditions: Table 1g; read-out: activity toward kinase Flt-3, IC50
T2 sequence (P36888 27-993): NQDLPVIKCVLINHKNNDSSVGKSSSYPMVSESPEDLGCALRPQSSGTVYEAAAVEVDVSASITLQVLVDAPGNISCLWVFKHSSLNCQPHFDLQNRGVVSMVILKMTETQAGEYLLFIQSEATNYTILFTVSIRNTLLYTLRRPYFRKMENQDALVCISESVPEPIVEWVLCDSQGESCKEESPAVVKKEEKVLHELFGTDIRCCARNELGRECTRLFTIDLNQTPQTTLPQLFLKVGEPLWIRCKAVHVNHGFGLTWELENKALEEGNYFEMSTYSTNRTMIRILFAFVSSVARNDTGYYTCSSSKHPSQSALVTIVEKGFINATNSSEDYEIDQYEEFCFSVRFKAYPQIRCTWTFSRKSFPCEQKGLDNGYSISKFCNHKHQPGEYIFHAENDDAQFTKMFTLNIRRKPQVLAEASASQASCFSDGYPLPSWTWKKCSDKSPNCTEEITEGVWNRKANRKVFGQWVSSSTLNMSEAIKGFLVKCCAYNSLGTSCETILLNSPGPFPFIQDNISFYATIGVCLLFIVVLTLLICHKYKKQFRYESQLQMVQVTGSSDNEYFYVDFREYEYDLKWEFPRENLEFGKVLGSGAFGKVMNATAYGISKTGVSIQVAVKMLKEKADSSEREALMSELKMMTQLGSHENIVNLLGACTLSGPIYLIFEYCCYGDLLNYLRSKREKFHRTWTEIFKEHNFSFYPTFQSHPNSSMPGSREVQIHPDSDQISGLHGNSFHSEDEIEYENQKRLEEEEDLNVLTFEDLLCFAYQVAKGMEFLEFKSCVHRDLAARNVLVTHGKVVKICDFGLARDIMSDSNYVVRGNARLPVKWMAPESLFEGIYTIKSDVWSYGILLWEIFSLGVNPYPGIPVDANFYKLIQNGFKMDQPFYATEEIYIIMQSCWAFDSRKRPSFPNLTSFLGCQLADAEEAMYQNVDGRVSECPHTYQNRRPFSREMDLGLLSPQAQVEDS
Text: as §1

Fms = Fms (Homo sapiens, UniProt P07333); assay: Kinase activity assay, Fms; conditions: Table 1h; read-out: activity toward kinase Fms, IC50
Text: as §1

Kdr = Kdr (Homo sapiens, UniProt P35968); assay: Kinase activity assay, Kdr; conditions: Table 1i; read-out: activity toward kinase Kdr, IC50
Text: as §1

Kit = Kit (Homo sapiens, UniProt P10721); assay: Kinase activity assay, Kit; conditions: Table 1j; read-out: activity toward kinase Kit, IC50
Text: as §1

TEC = biological target: T3, TEC (Homo sapiens, UniProt P42680); assay: Kinase activity assay, TEC; conditions: Table 1l; read-out: activity toward kinase TEC, IC50
T3 sequence (P42680 1-631): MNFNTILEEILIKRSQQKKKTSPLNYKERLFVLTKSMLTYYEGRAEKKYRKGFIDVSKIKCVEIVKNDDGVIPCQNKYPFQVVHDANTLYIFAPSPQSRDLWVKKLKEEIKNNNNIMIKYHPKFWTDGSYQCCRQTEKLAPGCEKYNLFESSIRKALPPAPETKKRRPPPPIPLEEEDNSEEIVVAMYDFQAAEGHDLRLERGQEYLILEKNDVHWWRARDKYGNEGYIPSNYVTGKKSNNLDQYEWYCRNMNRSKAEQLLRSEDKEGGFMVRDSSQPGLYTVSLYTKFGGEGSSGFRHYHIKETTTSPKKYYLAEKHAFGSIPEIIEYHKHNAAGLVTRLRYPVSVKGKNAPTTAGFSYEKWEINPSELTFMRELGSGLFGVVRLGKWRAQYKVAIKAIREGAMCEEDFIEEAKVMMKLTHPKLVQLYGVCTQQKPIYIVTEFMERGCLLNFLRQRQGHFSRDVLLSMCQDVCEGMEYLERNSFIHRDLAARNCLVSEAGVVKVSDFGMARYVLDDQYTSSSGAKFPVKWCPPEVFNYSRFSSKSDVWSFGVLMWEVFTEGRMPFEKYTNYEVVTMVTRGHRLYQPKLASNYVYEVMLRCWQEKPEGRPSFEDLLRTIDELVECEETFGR
Text: as §1

TrkA = TrkA (Homo sapiens, UniProt P04629); assay: Kinase activity assay, TrkA; conditions: Table 1m; read-out: activity toward kinase TrkA, IC50
Text: as §1

Src = Src (Homo sapiens, UniProt P12931); assay: Kinase activity assay, Src; conditions: Table 1k; read-out: activity toward kinase Src, IC50
Text: as §1

Btk = Btk (Homo sapiens, UniProt Q06187); assay: Kinase activity assay, Btk; conditions: Table 1e; read-out: activity toward kinase Btk, IC50
Text: as §1

B-Raf = B-Raf (Homo sapiens, UniProt P15056); assay: Kinase activity assay, B-Raf; conditions: Table 1b; read-out: activity toward kinase B-Raf, IC50
Text: as §1

C-Raf = C-Raf (Homo sapiens, UniProt P04049); assay: Kinase activity assay, C-Raf; conditions: Table 1d; read-out: activity toward kinase C-Raf, IC50
Text: as §1

Sequence of B-Raf (P15056 whole entry): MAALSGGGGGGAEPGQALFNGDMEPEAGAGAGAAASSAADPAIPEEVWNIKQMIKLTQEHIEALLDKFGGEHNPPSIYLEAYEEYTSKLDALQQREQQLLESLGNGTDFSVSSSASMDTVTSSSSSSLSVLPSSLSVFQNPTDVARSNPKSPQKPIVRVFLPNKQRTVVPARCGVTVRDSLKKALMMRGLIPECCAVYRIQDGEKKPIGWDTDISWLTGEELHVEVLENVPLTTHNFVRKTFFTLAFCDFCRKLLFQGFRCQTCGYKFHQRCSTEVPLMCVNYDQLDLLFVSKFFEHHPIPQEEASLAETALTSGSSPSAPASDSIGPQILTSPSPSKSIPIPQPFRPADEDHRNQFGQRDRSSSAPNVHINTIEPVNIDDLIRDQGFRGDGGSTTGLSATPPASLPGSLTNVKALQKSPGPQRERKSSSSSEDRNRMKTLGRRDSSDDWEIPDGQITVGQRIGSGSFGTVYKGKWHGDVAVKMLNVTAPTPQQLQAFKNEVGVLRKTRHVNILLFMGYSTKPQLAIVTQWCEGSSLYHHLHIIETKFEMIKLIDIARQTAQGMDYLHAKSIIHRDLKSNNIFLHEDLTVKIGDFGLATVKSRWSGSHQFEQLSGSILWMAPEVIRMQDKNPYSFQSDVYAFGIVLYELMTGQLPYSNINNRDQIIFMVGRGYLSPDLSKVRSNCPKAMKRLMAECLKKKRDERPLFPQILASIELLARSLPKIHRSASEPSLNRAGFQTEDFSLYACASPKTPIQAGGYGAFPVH
Sequence of Flt-1 (P17948 27-1338): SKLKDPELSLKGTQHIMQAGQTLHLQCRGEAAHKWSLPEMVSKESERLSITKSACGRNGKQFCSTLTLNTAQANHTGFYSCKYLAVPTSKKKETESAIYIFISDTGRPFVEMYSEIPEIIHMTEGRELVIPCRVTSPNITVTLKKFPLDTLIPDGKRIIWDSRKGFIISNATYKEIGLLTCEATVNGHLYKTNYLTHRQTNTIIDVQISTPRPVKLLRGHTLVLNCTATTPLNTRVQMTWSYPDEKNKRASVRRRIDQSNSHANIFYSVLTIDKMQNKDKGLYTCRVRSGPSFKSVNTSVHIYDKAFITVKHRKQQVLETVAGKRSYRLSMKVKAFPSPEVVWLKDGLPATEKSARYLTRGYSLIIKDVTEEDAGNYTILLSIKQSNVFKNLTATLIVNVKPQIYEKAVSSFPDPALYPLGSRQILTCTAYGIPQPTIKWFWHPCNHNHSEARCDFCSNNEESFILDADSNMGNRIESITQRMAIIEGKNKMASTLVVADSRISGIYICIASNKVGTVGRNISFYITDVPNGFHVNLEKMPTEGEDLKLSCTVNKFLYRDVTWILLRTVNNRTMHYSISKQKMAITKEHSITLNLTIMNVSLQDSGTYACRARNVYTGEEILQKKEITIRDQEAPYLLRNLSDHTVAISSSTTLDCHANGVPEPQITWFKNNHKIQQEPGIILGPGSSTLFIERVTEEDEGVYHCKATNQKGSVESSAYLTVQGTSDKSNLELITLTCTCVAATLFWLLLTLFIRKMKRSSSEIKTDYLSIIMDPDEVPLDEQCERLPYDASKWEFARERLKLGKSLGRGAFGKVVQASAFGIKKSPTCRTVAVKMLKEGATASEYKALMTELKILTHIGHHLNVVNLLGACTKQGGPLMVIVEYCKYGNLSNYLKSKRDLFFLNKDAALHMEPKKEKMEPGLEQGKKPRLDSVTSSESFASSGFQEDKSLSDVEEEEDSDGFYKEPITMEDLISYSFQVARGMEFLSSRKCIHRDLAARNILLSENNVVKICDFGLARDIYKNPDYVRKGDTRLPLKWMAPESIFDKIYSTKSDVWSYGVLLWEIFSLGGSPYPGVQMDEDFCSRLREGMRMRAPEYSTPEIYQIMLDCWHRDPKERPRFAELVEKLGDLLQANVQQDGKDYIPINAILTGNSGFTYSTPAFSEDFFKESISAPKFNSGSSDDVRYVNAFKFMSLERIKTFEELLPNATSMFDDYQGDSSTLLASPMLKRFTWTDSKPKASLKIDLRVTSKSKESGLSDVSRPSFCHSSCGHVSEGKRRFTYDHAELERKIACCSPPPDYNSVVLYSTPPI
Sequence of Kit (P10721 26-976): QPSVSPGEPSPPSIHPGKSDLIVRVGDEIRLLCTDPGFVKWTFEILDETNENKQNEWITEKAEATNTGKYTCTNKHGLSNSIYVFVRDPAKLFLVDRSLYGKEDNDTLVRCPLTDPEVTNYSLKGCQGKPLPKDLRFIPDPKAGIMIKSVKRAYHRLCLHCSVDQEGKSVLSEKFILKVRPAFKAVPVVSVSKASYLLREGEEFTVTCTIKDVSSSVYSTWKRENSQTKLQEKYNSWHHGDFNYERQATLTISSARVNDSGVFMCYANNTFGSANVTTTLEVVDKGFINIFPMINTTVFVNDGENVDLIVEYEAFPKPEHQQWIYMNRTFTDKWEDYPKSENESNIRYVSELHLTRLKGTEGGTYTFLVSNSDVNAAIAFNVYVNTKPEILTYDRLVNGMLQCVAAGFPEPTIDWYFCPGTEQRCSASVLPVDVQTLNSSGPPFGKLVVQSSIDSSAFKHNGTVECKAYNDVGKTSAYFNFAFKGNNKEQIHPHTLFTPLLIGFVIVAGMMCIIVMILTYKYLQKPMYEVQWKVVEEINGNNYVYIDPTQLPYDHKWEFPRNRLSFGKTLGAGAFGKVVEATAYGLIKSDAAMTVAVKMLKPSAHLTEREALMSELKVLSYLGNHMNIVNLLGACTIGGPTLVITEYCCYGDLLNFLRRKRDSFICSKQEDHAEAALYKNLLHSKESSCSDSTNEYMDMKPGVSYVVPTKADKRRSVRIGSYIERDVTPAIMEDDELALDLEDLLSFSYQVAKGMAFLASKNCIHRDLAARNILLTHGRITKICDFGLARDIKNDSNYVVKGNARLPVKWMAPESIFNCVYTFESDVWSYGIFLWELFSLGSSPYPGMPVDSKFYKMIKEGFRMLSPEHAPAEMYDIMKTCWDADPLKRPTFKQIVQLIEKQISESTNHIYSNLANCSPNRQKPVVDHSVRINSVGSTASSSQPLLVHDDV
Sequence of Kdr (P35968 20-1356): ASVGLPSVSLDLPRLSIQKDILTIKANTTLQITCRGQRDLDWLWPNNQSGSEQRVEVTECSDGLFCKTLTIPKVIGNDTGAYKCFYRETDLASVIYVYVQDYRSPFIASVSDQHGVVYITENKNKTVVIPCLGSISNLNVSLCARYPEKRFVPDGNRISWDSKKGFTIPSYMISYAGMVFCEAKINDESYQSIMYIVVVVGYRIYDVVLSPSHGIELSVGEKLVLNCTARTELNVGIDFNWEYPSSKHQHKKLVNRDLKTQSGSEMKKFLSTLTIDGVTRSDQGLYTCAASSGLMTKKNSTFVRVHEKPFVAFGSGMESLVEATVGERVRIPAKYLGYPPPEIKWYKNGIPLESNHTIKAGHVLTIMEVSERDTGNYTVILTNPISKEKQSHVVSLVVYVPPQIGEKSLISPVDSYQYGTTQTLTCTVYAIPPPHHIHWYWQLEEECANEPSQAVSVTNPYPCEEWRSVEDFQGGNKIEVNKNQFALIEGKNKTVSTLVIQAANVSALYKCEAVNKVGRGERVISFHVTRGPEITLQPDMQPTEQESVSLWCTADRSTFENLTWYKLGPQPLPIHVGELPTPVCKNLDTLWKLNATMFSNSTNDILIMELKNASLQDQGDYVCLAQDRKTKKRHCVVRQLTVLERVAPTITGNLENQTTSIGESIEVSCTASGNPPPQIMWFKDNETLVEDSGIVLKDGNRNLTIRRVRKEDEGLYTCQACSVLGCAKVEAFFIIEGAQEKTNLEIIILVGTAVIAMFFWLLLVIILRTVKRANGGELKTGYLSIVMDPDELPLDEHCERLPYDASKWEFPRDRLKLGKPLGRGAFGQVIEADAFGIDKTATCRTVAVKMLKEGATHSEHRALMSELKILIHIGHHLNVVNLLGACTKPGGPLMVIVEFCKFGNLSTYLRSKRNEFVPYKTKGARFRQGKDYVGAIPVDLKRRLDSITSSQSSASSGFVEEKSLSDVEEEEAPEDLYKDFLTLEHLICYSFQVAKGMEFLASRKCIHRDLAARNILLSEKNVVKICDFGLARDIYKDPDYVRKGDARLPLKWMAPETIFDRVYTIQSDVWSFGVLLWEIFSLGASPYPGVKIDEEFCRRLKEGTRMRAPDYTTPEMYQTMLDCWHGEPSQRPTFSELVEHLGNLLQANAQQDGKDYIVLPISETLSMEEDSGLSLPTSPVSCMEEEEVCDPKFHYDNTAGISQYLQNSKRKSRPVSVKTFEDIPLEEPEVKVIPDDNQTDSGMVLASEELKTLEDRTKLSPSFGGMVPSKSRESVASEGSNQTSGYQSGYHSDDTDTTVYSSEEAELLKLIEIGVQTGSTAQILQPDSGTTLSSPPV
Sequence of B-Raf V600E (P15056 whole entry V600E): as the sequence (P15056 whole entry) above, with V600E counted along it
Sequence of Btk (Q06187 whole entry): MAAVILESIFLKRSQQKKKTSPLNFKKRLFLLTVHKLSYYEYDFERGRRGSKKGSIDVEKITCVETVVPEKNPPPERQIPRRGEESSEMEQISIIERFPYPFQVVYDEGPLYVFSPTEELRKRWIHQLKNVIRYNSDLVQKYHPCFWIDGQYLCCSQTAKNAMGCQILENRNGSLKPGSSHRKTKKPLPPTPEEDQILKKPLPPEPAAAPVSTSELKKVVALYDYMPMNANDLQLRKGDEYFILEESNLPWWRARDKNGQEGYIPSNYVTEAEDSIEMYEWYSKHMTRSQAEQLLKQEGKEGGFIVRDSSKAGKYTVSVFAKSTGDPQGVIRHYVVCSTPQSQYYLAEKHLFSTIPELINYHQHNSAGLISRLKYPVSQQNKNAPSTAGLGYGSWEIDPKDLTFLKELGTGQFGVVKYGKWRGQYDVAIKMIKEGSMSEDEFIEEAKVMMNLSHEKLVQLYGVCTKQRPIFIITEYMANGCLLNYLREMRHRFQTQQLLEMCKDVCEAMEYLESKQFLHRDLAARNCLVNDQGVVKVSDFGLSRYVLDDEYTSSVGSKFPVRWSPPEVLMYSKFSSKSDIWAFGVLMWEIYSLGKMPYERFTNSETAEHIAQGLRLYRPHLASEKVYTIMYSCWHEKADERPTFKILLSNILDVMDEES

SMILES | IC50 (A-Raf) [µM] | IC50 (B-Raf V600E) [µM] | IC50 (Flt-1) [µM] | IC50 (Flt-3) [µM] | IC50 (Fms) [µM] | IC50 (Kdr) [µM] | IC50 (Kit) [µM] | IC50 (TEC) [µM] | IC50 (TrkA) [µM] | IC50 (Src) [µM] | IC50 (Btk) [µM] | IC50 (B-Raf) [µM] | IC50 (C-Raf) [µM]
Clc1ccc(CNc2ccc(Cc3c[nH]c4ncncc34)cn2)cc1 [P-0001, (4-Chloro-benzyl)-[5-(7H-pyrrolo[2,3-d]pyrimidin-5-ylmethyl)-pyridin-2-yl]-amine] | ≤ 10 | ≤ 10 | ≤ 10 | ≤ 10 | ≤ 10 | ≤ 10 | ≤ 10 | ≤ 10 | ≤ 10 |  |  |  | 
Clc1ccccc1CNc1ccc(Cc2c[nH]c3ncncc23)cn1 [P-0003, (2-Chloro-benzyl)-[5-(7H-pyrrolo[2,3-d]pyrimidin-5-ylmethyl)-pyridin-2-yl]-amine] | ≤ 10 | ≤ 10 | ≤ 10 | ≤ 10 | ≤ 10 |  | ≤ 10 | ≤ 10 | ≤ 10 |  |  |  | 
COc1ccc(CNc2ccc(Cc3c[nH]c4ncnc(OC)c34)cn2)cn1 [P-0013, (6-Methoxy-pyridin-3-ylmethyl)-[5-(4-methoxy-7H-pyrrolo[2,3-d]pyrimidin-5-ylmethyl)-pyridin-2-yl]-amine] | ≤ 10 | ≤ 10 |  | ≤ 10 | ≤ 10 | ≤ 10 | ≤ 10 |  |  |  |  | ≤ 10 | 
COc1ncnc2[nH]cc(Cc3ccc(NCc4ccccc4Cl)nc3)c12 [P-0014, (2-Chloro-benzyl)-[5-(4-methoxy-7H-pyrrolo[2,3-d]pyrimidin-5-ylmethyl)-pyridin-2-yl]-amine] | ≤ 10 | ≤ 10 |  | ≤ 10 | ≤ 10 | ≤ 10 | ≤ 10 |  |  | ≤ 10 |  |  | 
COc1ncnc2[nH]cc(Cc3cnc(NCc4cncc(F)c4)nc3)c12 [P-0098, (5-Fluoro-pyridin-3-ylmethyl)-[5-(4-methoxy-7H-pyrrolo[2,3-d]pyrimidin-5-ylmethyl)-pyrimidin-2-yl]-amine] |  |  |  |  | ≤ 10 |  | ≤ 10 |  | ≤ 10 |  | ≤ 10 |  | 

More lines, now with the values ahead:

IC50 (A-Raf) [µM] | IC50 (B-Raf V600E) [µM] | IC50 (Flt-1) [µM] | IC50 (Flt-3) [µM] | IC50 (Fms) [µM] | IC50 (Kdr) [µM] | IC50 (Kit) [µM] | IC50 (TEC) [µM] | IC50 (TrkA) [µM] | IC50 (Src) [µM] | IC50 (Btk) [µM] | IC50 (B-Raf) [µM] | IC50 (C-Raf) [µM] | SMILES
≤ 10 | ≤ 10 | ≤ 10 | ≤ 10 | ≤ 10 | ≤ 10 | ≤ 10 |  | ≤ 10 | ≤ 10 |  |  |  | Fc1nc(NCc2ccc(Cl)cc2)ccc1Cc1c[nH]c2ncncc12 [P-0006, (4-Chloro-benzyl)-[6-fluoro-5-(7H-pyrrolo[2,3-d]pyrimidin-5-ylmethyl)-pyridin-2-yl]-amine]
≤ 10 | ≤ 10 |  | ≤ 10 | ≤ 10 | ≤ 10 | ≤ 10 |  | ≤ 10 |  |  |  |  | Fc1nc(NCc2ccc(C(F)(F)F)nc2)ccc1Cc1c[nH]c2ncncc12 [P-0007, [6-Fluoro-5-(7H-pyrrolo[2,3-d]pyrimidin-5-ylmethyl)-pyridin-2-yl]-(6-trifluoromethyl-pyridin-3-ylmethyl)-amine]
≤ 10 | ≤ 10 |  | ≤ 10 | ≤ 10 | ≤ 10 | ≤ 10 |  |  |  | ≤ 10 |  |  | COc1ccc(CNc2ccc(Cc3c[nH]c4ncncc34)c(F)n2)cn1 [P-0009, [6-Fluoro-5-(7H-pyrrolo[2,3-d]pyrimidin-5-ylmethyl)-pyridin-2-yl]-(6-methoxy-pyridin-3-ylmethyl)-amine]
≤ 10 |  |  | ≤ 10 | ≤ 10 | ≤ 10 | ≤ 10 |  | ≤ 10 |  |  |  |  | COc1ncc(F)cc1CNc1ccc(Cc2c[nH]c3ncncc23)c(F)n1 [P-0011, (5-Fluoro-2-methoxy-pyridin-3-ylmethyl)-[6-fluoro-5-(7H-pyrrolo[2,3-d]pyrimidin-5-ylmethyl)-pyridin-2-yl]-amine]
 | ≤ 10 |  |  | ≤ 10 | ≤ 10 | ≤ 10 |  |  | ≤ 10 |  | ≤ 10 | ≤ 10 | Fc1nc(NCc2cccnc2OC2CCCCC2)ccc1Cc1c[nH]c2ncncc12 [P-0088, (2-Cyclohexyloxy-pyridin-3-ylmethyl)-[6-fluoro-5-(7H-pyrrolo[2,3-d]pyrimidin-5-ylmethyl)-pyridin-2-yl]-amine]
 | ≤ 10 |  |  | ≤ 10 | ≤ 10 | ≤ 10 |  | ≤ 10 |  | ≤ 10 | ≤ 10 | ≤ 10 | COc1ncnc2[nH]cc(Cc3ccc(NCc4ccc(C(F)(F)F)nc4)nc3F)c12 [P-0101, [6-Fluoro-5-(4-methoxy-7H-pyrrolo[2,3-d]pyrimidin-5-ylmethyl)-pyridin-2-yl]-(6-trifluoromethyl-pyridin-3-ylmethyl)-amine]

From patent US8158636B2, “Compounds and methods for kinase modulation, and indications therefor” (Plexxikon Inc., priority 2008, dated 2012)
